The results in this text go back to ChEMBL document CHEMBL4387771, “Discovery of 1,2,3-triazole-based fibroblast growth factor receptor modulators” (Bioorg Med Chem Lett, 2019).

In series [1] the target is Fibroblast growth factor receptor 1 (Rattus norvegicus) (UniProt Q04589). Nature of the series: Modulation of FGFR in Wistar rat neuronal cells assessed as protection against glutamate-induced toxicity at 10 uM pretreated for 24 hrs followed by glutamate-stimulation and measured after 24 hrs by CCK8 assay relative to SUN13837. In kind it is cell-based. On the technique in general: Tetrazolium assays rely on reduction of a dye to a coloured formazan, in cell work by metabolically active cells.

In a further series the target is CYP3A4 (Homo sapiens, UniProt P08684). Nature of the series: Inhibition of CYP3A4 in human liver microsomes assessed as enzyme residual activity at 100 uM measured after 30 mins relative to control. It is filed as ADME. As to conditions: read-out: Activity. A general note: Liver microsomes are vesicles of endoplasmic reticulum, rich in cytochrome P450 enzymes.
The nature of series [2]: Metabolic stability in human liver microsomes assessed as metabolic turnover rate per mg protein in presence of NADPH. In kind it is ADME, Microsome.
Series [3] is described as follows: Lipophilicity, log P of the compound by RP-HPLC analysis. It is filed as physicochemical.
Series [4] deals with Fibroblast growth factor receptor 1 (Rattus norvegicus) (UniProt Q04589). Kind of series: Modulation of FGFR in Wistar rat neuronal cells assessed as protection against glutamate-induced toxicity at 10 uM pretreated for 24 hrs followed by glutamate-stimulation and measured after 24 hrs in presence of FGFR1 inhibitor PD166866 by CCK8 assay. In kind it is cell-based.
Series [5] in a line: Elimination half life in Sprague-Dawley rat at 3 mg/kg, iv. In kind it is ADME, organism-based. The note with it: in vivo, read-out: beta t1/2 (converted).
The nature of series [6]: Clearance in Sprague-Dawley rat at 3 mg/kg, iv. It is filed as ADME, organism-based. As to conditions: in vivo.
Series [7] is described as follows: AUC in Sprague-Dawley rat at 5 mg/kg, po. It is filed as ADME, organism-based. As to conditions: in vivo.
The nature of series [8]: Oral bioavailability in Sprague-Dawley rat at 5 mg/kg. In kind it is ADME, organism-based. The note with it: in vivo.
Series [9] can be described thus: Brain to plasma permeability coefficient, Kp of the compound in Sprague-Dawley rat at 3 mg/kg, iv measured after 1 hr. As to conditions: brain and plasma. It is filed as ADME, organism-based.
Series [10] can be described thus: Elimination half life in Sprague-Dawley rat at 1 mg/kg, iv. It is filed as ADME, organism-based. As to conditions: in vivo, read-out: beta t1/2 (converted).
A short description of series [11]: Clearance in Sprague-Dawley rat at 1 mg/kg, iv. In kind it is ADME, organism-based. The note with it: in vivo.
Series [12] is described as follows: Brain to plasma permeability coefficient, Kp of the compound in Sprague-Dawley rat at 1 mg/kg, iv measured after 1 hr. In kind it is ADME, organism-based. As to conditions: brain and plasma.

Active and inactive are the calls of the source. The calls are words filed in the database; no cut-off is given here.

Fibroblast growth factor receptor 1 (Rattus norvegicus), sequence (Q04589 whole entry): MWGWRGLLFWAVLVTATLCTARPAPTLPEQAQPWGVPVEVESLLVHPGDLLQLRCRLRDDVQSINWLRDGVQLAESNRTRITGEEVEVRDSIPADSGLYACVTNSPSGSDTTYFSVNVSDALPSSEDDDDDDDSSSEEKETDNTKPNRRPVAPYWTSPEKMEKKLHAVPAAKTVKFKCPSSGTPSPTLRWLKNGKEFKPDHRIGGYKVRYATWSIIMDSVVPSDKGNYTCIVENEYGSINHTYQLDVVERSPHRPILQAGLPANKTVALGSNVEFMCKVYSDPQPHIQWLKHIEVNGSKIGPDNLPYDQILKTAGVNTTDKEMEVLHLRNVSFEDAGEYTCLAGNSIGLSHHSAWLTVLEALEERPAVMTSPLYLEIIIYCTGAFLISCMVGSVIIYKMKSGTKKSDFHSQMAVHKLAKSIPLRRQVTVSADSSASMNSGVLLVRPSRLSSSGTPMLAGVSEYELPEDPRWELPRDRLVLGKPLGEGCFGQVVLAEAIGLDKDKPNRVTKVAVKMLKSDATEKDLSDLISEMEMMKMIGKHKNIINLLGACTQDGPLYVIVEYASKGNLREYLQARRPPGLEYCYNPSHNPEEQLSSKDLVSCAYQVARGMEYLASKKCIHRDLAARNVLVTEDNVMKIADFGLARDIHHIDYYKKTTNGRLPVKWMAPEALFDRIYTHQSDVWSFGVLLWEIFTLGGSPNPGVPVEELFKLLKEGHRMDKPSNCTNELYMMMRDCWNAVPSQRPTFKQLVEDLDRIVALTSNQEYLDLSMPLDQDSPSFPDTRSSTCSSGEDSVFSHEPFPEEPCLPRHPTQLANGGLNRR
CYP3A4, sequence (P08684 whole entry): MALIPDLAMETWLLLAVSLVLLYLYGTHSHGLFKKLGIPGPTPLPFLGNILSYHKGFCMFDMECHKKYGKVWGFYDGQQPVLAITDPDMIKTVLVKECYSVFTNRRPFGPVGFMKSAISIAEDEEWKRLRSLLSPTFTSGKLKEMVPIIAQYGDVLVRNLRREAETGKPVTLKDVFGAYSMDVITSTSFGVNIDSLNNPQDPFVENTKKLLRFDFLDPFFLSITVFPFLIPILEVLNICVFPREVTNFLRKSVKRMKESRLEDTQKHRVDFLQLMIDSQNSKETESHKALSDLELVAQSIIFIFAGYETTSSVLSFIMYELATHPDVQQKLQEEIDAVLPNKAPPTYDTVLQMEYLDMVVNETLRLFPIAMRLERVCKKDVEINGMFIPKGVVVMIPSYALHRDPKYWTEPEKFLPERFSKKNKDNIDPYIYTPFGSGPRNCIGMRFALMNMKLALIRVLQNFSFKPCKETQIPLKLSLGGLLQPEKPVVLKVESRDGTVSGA

For `Cc1nc(OCc2cn(C3CCN(CC4CC4)CC3)nn2)nc(C)c1N`, in series [1], the Activity came to 116%. For the same molecule, the activity at 0.5 h, 100 µM on CYP3A4 stood at 100%. Moreover, the Drug metabolism in series [2] was < 10 pmol/min. The logP (usually the decadic logarithm of the partition coefficient of the neutral form, usually between octanol and water) in [3] was 1.4.
On the same counts, the results for `Clc1cnc(OCc2cn(C3CCN(Cc4ccccc4)CC3)nn2)nc1` are 43%, 99%, 86 pmol/min and 5.
In the case of `Cc1nc(OCc2cn(C3CCN(Cc4ccccc4)CC3)nn2)nc(C)c1N`, the Activity in series [1] was 134%. At CYP3A4, the activity at 0.5 h, 100 µM was found to be 19%. Also, the Drug metabolism in [2] came out at 19 pmol/min. Further, in series [3], the logP turned out to be 3. In series [4], the Activity entry was “inactive”.
Turning to `Cc1c(COc2ncc(Cl)cn2)nnn1C1CCN(CC2CC2)CC1`, the Activity in series [1] was determined as 311%. The activity at 0.5 h, 100 µM on CYP3A4 worked out at 94%. For the same molecule, in series [2], the Drug metabolism was < 10 pmol/min. The log partition coefficient (logP) in [3] was 2.4. Moreover, the Activity result in series [4] was “inactive”. In [5], the half-life was 4 h. Moreover, the clearance – broadly, the volume of plasma or blood freed of the substance per unit of time – in [6] is 10 mL/min/kg. Further, the AUC (usually concentration integrated over time) in [7] stood at 4520 ng·h/mL. For the same molecule, the bioavailability (as a rule, the share of a dose that reaches the circulation, judged against a reference dose that is usually intravenous) in series [8] is 57%. For the same molecule, the Kp (usually the ratio of the level in a tissue or fluid to that in plasma or blood) at 1 h in [9] came to 1.3.
As for `Cc1ccc(OCc2cn(C3CCN(Cc4ccccc4)CC3)nn2)nn1`, the Activity in series [1] came to 135%. In addition, the activity at 0.5 h, 100 µM at CYP3A4 amounted to 100%. In addition, the Drug metabolism in series [2] is 45 pmol/min. The molecule further yielded a logP in series [3] of 3.5.
On the same counts, the results for `Cc1ccc(OCc2cn(C3CCN(CC4CC4)CC3)nn2)nn1` are 118%, 100%, 34 pmol/min and 1.4.
As to `Cc1ccc(OCc2cnnn2C2CCN(Cc3ccccc3)CC2)nn1`, the Activity in [1] stood at 73%. The same molecule showed a logP in [3] of 3.8.
Consider `Cc1cnc(OCc2cn(C3CCN(Cc4ccccc4)CC3)nn2)nc1`, for which the Activity in series [1] worked out at 66%. Also, the activity at 0.5 h, 100 µM on CYP3A4 was determined as 100%. The Drug metabolism in series [2] is 40 pmol/min. The logP in series [3] came to 4.
Consider `Cc1cnc(OCc2cn(C3CCN(CC4CC4)CC3)nn2)nc1`, for which the Activity in [1] came out at 100%. In addition, on CYP3A4, the activity at 0.5 h, 100 µM amounted to 100%. The molecule also showed a logP in series [3] of 1.7.
In the case of `Clc1cnc(OCc2cn(C3CCN(CC4CC4)CC3)nn2)nc1`, in [1], the Activity turned out to be 162%. For the same molecule, at CYP3A4, the activity at 0.5 h, 100 µM came out at 100%. Also, the Drug metabolism in series [2] stood at 24 pmol/min. Further, the logP in series [3] amounted to 2.6. The half-life in series [10] was 1.6 h. Also, the clearance in [11] is 21.7 mL/min/kg. Moreover, the AUC in series [7] is 2120 ng·h/mL. In addition, in series [8], the bioavailability was 58%. For the same molecule, in [12], the Kp at 1 h worked out at 1.1.
Regarding `Cc1nc(OCC(=O)N(C)C2CCN(Cc3ccccc3)CC2)nc(C)c1N`, at CYP3A4, the activity at 0.5 h, 100 µM worked out at 60%. For the same molecule, the Drug metabolism in series [2] is < 10 pmol/min. The logP in series [3] amounted to 2.3.
